Measured values from paper PMC6422671 (British Journal of Clinical Pharmacology, 2019).

Assay: Vital signs; data mean (standard deviation)
Assay type: in vivo, healthy men
Text: Data are mean (standard deviation)

## C[C@@H](N)c1cc(Cl)ccc1Cn1c(=S)[nH]c(=O)c2[nH]ccc21 [AZD4831]
45 mg fed, 0.5 h
  DBP: 66 (16) mmHg
  Pulse: 63 (6) bpm
  SBP: 121 (15) mmHg
45 mg fed, 1 h
  DBP: 65 (11) mmHg
  Pulse: 66 (11) bpm
  SBP: 122 (16) mmHg
45 mg fed, 2 h
  DBP: 66 (18) mmHg
  Pulse: 64 (9) bpm
  SBP: 120 (12) mmHg
45 mg fed, 3 h
  DBP: 69 (11) mmHg
  Pulse: 64 (9) bpm
  SBP: 125 (13) mmHg
45 mg fed, 4 h
  DBP: 67 (15) mmHg
  Pulse: 62 (10) bpm
  SBP: 123 (17) mmHg
45 mg fed, 6 h
  DBP: 70 (15) mmHg
  Pulse: 64 (8) bpm
  SBP: 120 (7) mmHg
45 mg fed, 8 h
  DBP: 71 (17) mmHg
  Pulse: 59 (9) bpm
  SBP: 121 (14) mmHg
45 mg fed, 12 h
  DBP: 69 (15) mmHg
  Pulse: 63 (10) bpm
  SBP: 124 (8) mmHg
45 mg fed, 24 h
  DBP: 69 (12) mmHg
  Pulse: 57 (9) bpm
  SBP: 114 (9) mmHg
45 mg fed, 36 h
  DBP: 71 (15) mmHg
  Pulse: 62 (9) bpm
  SBP: 127 (9) mmHg
45 mg fed, 48 h
  DBP: 73 (13) mmHg
  Pulse: 57 (4) bpm
  SBP: 116 (7) mmHg
135 mg fasted, 0.5 h
  DBP: 69 (5) mmHg
  Pulse: 59 (6) bpm
  SBP: 113 (8) mmHg
135 mg fasted, 1 h
  DBP: 70 (4) mmHg
  Pulse: 61 (9) bpm
  SBP: 110 (5) mmHg
135 mg fasted, 2 h
  DBP: 68 (6) mmHg
  Pulse: 59 (7) bpm
  SBP: 113 (10) mmHg
135 mg fasted, 3 h
  DBP: 68 (6) mmHg
  Pulse: 59 (6) bpm
  SBP: 113 (7) mmHg
135 mg fasted, 4 h
  DBP: 69 (6) mmHg
  Pulse: 60 (7) bpm
  SBP: 116 (8) mmHg
135 mg fasted, 6 h
  DBP: 66 (6) mmHg
  Pulse: 67 (8) bpm
  SBP: 113 (10) mmHg
135 mg fasted, 8 h
  DBP: 70 (6) mmHg
  Pulse: 62 (4) bpm
  SBP: 113 (8) mmHg
135 mg fasted, 12 h
  DBP: 69 (7) mmHg
  Pulse: 70 (5) bpm
  SBP: 119 (9) mmHg
135 mg fasted, 24 h
  DBP: 69 (3) mmHg
  Pulse: 65 (9) bpm
  SBP: 115 (7) mmHg
135 mg fasted, 36 h
  DBP: 67 (6) mmHg
  Pulse: 73 (7) bpm
  SBP: 118 (12) mmHg
135 mg fasted, 48 h
  DBP: 71 (5) mmHg
  Pulse: 67 (9) bpm
  SBP: 114 (10) mmHg
405 mg fasted, 0.5 h
  DBP: 70 (7) mmHg
  Pulse: 61 (8) bpm
  SBP: 116 (9) mmHg
405 mg fasted, 1 h
  DBP: 69 (8) mmHg
  Pulse: 61 (8) bpm
  SBP: 114 (6) mmHg
405 mg fasted, 2 h
  DBP: 68 (6) mmHg
  Pulse: 58 (8) bpm
  SBP: 114 (9) mmHg
405 mg fasted, 3 h
  DBP: 67 (5) mmHg
  Pulse: 57 (6) bpm
  SBP: 112 (6) mmHg
405 mg fasted, 4 h
  DBP: 69 (7) mmHg
  Pulse: 60 (8) bpm
  SBP: 115 (5) mmHg
405 mg fasted, 6 h
  DBP: 66 (5) mmHg
  Pulse: 63 (8) bpm
  SBP: 113 (4) mmHg
405 mg fasted, 8 h
  DBP: 67 (5) mmHg
  Pulse: 59 (7) bpm
  SBP: 113 (5) mmHg
405 mg fasted, 12 h
  DBP: 67 (4) mmHg
  Pulse: 63 (8) bpm
  SBP: 114 (8) mmHg
405 mg fasted, 24 h
  DBP: 71 (2) mmHg
  Pulse: 60 (7) bpm
  SBP: 113 (4) mmHg
405 mg fasted, 36 h
  DBP: 68 (4) mmHg
  Pulse: 65 (5) bpm
  SBP: 118 (4) mmHg
405 mg fasted, 48 h
  DBP: 71 (7) mmHg
  Pulse: 65 (9) bpm
  SBP: 118 (4) mmHg
In vivo
  changes in vital signs or electrocardiography parameters: no clinically significant changes
